Laboratory results reported in patent publication US8927565B2, “Compositions for veterinary and medical applications” (priority 2003, dated 2015).

Assays:
piglets = assay: GILAX as feed additive for pig health after weaning; type: in vivo; details: in-feed amoxicillin at 50 mg/kg/day for 21 days (positive control)
Staph. Aureus ATCC 29213 = assay: Antimicrobial activity, Minimum Inhibitory Concentration; type: cell-based, Staphylococcus aureus
Strep. Group B MCR1 27 = assay: as above; type: cell-based, Streptococcus Group B; details: for Minimum Inhibitory Concentration: Strep. Group B MCR1 27
E. coli HS = assay: as above; type: cell-based, Escherichia Coli
V. cholerae 6239 = assay: as above; type: cell-based, Vibrio cholerae; details: for Minimum Inhibitory Concentration: V. cholerae 6239
C. albicans ATCC 14053 = assay: as above; type: cell-based, Candida albicans; details: for Minimum Inhibitory Concentration: C. albicans ATCC 14053
L. plantarum = assay: as above; type: cell-based, Lactobacillus plantarum; details: for Minimum Inhibitory Concentration: L. plantarum
[1] = system: Cl. perfringens ATCC 1124; type: cell-based; details: Clostridium perfringens
Escherichia Coli = assay: Loss of filaments and of attachment to intestinal wall below the MIC; type: cell-based; details: berberine at 5 µg/ml, much lower than MIC
Description: (§1) This specific property of berberine offers an important aspect as a GI tract cleanser, since it can selectively remove pathogenic bacteria from the gut without affecting the inhabitations of the probiotic bacteria in GI tract, and without exerting excessive drug pressure on the bacteria, which may lead to drug resistance.

Lactobacilli = assay: Effect on probiotic bacteria below the MIC; type: cell-based; details: berberine at 5 µg/ml
Description: as §1

interleukine-12 (IL-12) = assay: Induction of interleukine-12
IL-8 = assay: Inhibition of IL-8 production
[2] = system: hFUT1 mouse model of colitis; assay: Treatment of IBD on mouse model; type: in vivo; details: Group 2: berberine chloride 13.5 mg/kg/day (o.s.)
Description: hFUT1 mouse model of colitis was used. It provides insights into the pathogenesis of Inflammatory Bowel Disease (IBD). […] Immune dysfunction contributing to IBD in humans includes abnormal T cell reactivity and a loss of tolerance to gut bacteria. The compositions of Formula (1) and Formula (2) were given orally to mice to see the effectiveness on the altering the gut flora and lessening the severity of the colitis. The positive results indicated the compositions of Formula and Formula (2) may have a therapeutic role in human IBD.
A total five groups with ten mice per group were used as follows. • 1) Control (without treatment). • 2) Treated with compound of the Formula (1) (berberine chloride), 13.5 mg/kg/day (o.s.). • 3) Treated with compound of the Formula (2) (40% oxidized cellulose), 114 mg/kg/day (o.s.). • 4) Treated with composition of the Formula (1) (berberine chloride) (6.7 mg/kg/day) and the Formula (2) (40% oxidized cellulose) (57 mg/kg/day) (o.s.). • 5) Treated with composition of the Formula (1) (berberine chloride) (13.5 mg/kg/day) and the Formula (2) (114 mg/kg/day) (o.s.).

[3] = across the intestinal tissue; reference [13]; cited from earlier work
chickens = assay: Pilot chicken experiment (feed additives, growth and red combs)

CC1(C)S[C@@H]2[C@H](NC(=O)[C@H](N)c3ccc(O)cc3)C(=O)N2[C@H]1C(=O)O [Amoxicillin, amoxicillin]
health of piglets after weaning (piglets): all healthy
need of injectable amoxicillin for sick piglets (piglets): no injectable amoxicillin was needed

CC[C@H]1OC(=O)[C@H](C)[C@@H](O[C@H]2C[C@@](C)(OC)[C@@H](O)[C@H](C)O2)[C@H](C)[C@@H](O[C@@H]2O[C@H](C)C[C@H](N(C)C)[C@H]2O)[C@](C)(O)C[C@@H](C)C(=O)[C@H](C)[C@@H](O)[C@]1(C)O [Erythromycin, reference compound]
Minimum Inhibitory Concentration (Staph. Aureus ATCC 29213; Staph. Aureus ATCC 29213): <0.625 µg/mL
Minimum Inhibitory Concentration (Strep. Group B MCR1 27): <0.625 µg/mL
Minimum Inhibitory Concentration (E. coli HS): >10 µg/mL
Minimum Inhibitory Concentration (V. cholerae 6239): >10 µg/mL
Minimum Inhibitory Concentration (C. albicans ATCC 14053): >10 µg/mL
Minimum Inhibitory Concentration (L. plantarum): <0.625 µg/mL

COc1ccc2cc3[n+](cc2c1OC)CCc1cc2c(cc1-3)OCO2.[Cl-] [berberine chloride]
inhibition of pathogenic bacteria (in words) (Staph. Aureus ATCC 29213; Staphylococcus aureus): selectively inhibits
Minimum Inhibitory Concentration (Strep. Group B MCR1 27): 62.5 µg/mL
inhibition of pathogenic bacteria (in words) (Strep. Group B MCR1 27; Streptococcus Group B): selectively inhibits
Minimum Inhibitory Concentration (E. coli HS): >500 µg/mL
Minimum Inhibitory Concentration (V. cholerae 6239): 125 µg/mL
inhibition of pathogenic bacteria (in words) (V. cholerae 6239; Vibrio cholerae): selectively inhibits
Minimum Inhibitory Concentration (C. albicans ATCC 14053): 62.5 µg/mL
inhibition of pathogenic bacteria (in words) (C. albicans ATCC 14053; Candida albicans): selectively inhibits
inhibition of pathogenic bacteria (in words) [1]: selectively inhibits
Minimum Inhibitory Concentration (L. plantarum): 500 µg/mL
inhibition of beneficial bacteria (probiotics) (in words) (L. plantarum; Lactobacillus plantarum, at <500 µg/ml): does not inhibit
effect on filaments and attachment on the wall of intestine (Escherichia Coli): lost their filaments and were unable to attach on the wall of intestine
effect on probiotic bacteria (Lactobacilli): did not affect
induction of interleukine-12 (IL-12) (interleukine-12 (IL-12)): could induce
inhibition of the production of IL-8 (IL-8): inhibit the production of IL-8
Survival rate after 56 days treatment [2]: 5/10
apparent permeability coefficient (Papp) [3]: ~10^−7 cm/s
Growth rate compared to that of the control on day 36 (chickens; Group A: 50 ppm berberine chloride in feed): 106.36% (p = 0.05)
Red Combs (Number of red comb/total number of chickens) (chickens; Group A: 50 ppm berberine chloride in feed, Day 14 (start of additive)): 0/5
Red Combs (Number of red comb/total number of chickens) (chickens; Group A: 50 ppm berberine chloride in feed, Day 17): 1/5
Red Combs (Number of red comb/total number of chickens) (chickens; Group A: 50 ppm berberine chloride in feed, Day 21): 1/5
Red Combs (Number of red comb/total number of chickens) (chickens; Group A: 50 ppm berberine chloride in feed, Day 24): 3/5
Red Combs (Number of red comb/total number of chickens) (chickens; Group A: 50 ppm berberine chloride in feed, Day 26): 3/5
Red Combs (Number of red comb/total number of chickens) (chickens; Group A: 50 ppm berberine chloride in feed, Day 32): 4/5
Red Combs (Number of red comb/total number of chickens) (chickens; Group A: 50 ppm berberine chloride in feed, Day 36): 4/5
Growth rate compared to that of the control on day 36 (chickens; Group B: 10 ppm berberine chloride in feed): 101.79%
Red Combs (Number of red comb/total number of chickens) (chickens; Group B: 10 ppm berberine chloride in feed, Day 14 (start of additive)): 0/5
Red Combs (Number of red comb/total number of chickens) (chickens; Group B: 10 ppm berberine chloride in feed, Day 17): 0/5
Red Combs (Number of red comb/total number of chickens) (chickens; Group B: 10 ppm berberine chloride in feed, Day 21): 2/5
Red Combs (Number of red comb/total number of chickens) (chickens; Group B: 10 ppm berberine chloride in feed, Day 24): 2/5
Red Combs (Number of red comb/total number of chickens) (chickens; Group B: 10 ppm berberine chloride in feed, Day 26): 3/5
Red Combs (Number of red comb/total number of chickens) (chickens; Group B: 10 ppm berberine chloride in feed, Day 32): 4/5
Red Combs (Number of red comb/total number of chickens) (chickens; Group B: 10 ppm berberine chloride in feed, Day 36): 5/5
residue found in the meat of chickens (chickens; after feeding as feed additive): no residue
